Measurements from ChEMBL document CHEMBL1125995, “Synthesis of a difluoromethylenephosphonate analogue of AZT 5'-triphosphate and its inhibition of HIV-1 reverse transcriptase” (Bioorg Med Chem Lett, 1991).

How the values were obtained:
[1] = biological target: T1, Human immunodeficiency virus type 1 reverse transcriptase (Human immunodeficiency virus 1, UniProt Q72547); experiment: Compound concentration that causes 50 % inhibition of HIV-1 peptide-derived reverse transcriptase (RT)
[2] = biological target: T1, Human immunodeficiency virus type 1 reverse transcriptase; experiment: Compound concentration that causes 50 % inhibition of HIV-1 peptide-derived reverse transcriptase (RT) obtained from HIV-1-infected H9 cell cultures
[3] = biological target: T1, Human immunodeficiency virus type 1 reverse transcriptase; experiment: Inhibitory constant was determined in an HIV-1 reverse transcriptase assay in which the [3H]dTTP concentration was varied (i.e. 40, 20, 10, 6, and 4 uM

Structure (SMILES) | IC50 [1] [nM] | IC50 [2] [nM] | Ki [3] [nM]
Cc1cn(C2CC(N=[N+]=[N-])C(COP(=O)(O)OP(=O)(O)CP(=O)(O)O)O2)c(=O)[nH]c1=O (centres undefined) | 6950 |  | 
Cc1cn([C@H]2C[C@H](N=[N+]=[N-])[C@@H](CO[P@](=O)(O)O[P@](=O)(O)OP(=O)(O)O)O2)c(=O)[nH]c1=O [ZIDOVUDINE TRIPHOSPHATE] |  | 22 | 
Cc1cn(C2CC(N=[N+]=[N-])C(COP(=O)(O)OP(=O)(O)C(F)(F)P(=O)(O)O)O2)c(=O)[nH]c1=O (centres undefined) | 620 |  | 2230
